From patent US11168081B2, “Alkaloid derivative having angiogenesis inhibitory effect, and pharmaceutical composition containing same” (SEOUL NATIONAL UNIVERSITY R&DB FOUNDATION, priority 2017, dated 2021)

Legend:
[1] = MDCK permeability; type: in vitro ADME, canine; conditions: dog, MDCK, pH 7.4; 10 μM, apical to basolateral
Procedure: (§1) The permeability was examined using Madin-Darby canine kidney (MDCK) cell line. The MDCK cell line was acquired from the American Type Culture Collection (Manassas, Va.). The cells were seeded in 12 well plates and allowed to grow for 7 days at 37° C. under a 5% CO2 atmosphere. The MDCKI monolayers were equilibrated for 30 minutes in transport buffer (10 mM glucose, 4 mM sodium bicarbonate, HBSS with 1 mM HEPES, pH 7.4) at 37° C. under a 5% CO2 atmosphere prior to the experiment. The permeability of the test compound was examined at 10 μM (with a final DMSO percentage of 1%) in the apical to basolateral (A-to-B) direction. The concentration was analyzed by LC-MS/MS. The apparent permeability (Papp, A-B) was calculated using the following equation 2.
(§2) wherein, dQ/dt is the rate of compound appearance in the receiver compartment (Q is the quantity of compound), C0 is the concentration in the donor compartment, and A is the surface area of the insert.

[2] = tested on: Madin-Darby canine kidney (MDCK) cell line; experiment: MDCK permeability; type: in vitro ADME; conditions: in words
Procedure: as §1, §2

[3] = pKa; type: physicochemical
[4] = tested on: VEGFR2-mediated PI3K/AKT/eNOS and SRC/FAK signaling pathway; experiment: Biomarker analysis (immunoblot) in VEGF-stimulated HUVECs; type: cell-based, human; conditions: FIG. 2
Procedure: The harvested cells were lysed by 2× sample loading buffer (250 mM Tris-HCl, pH 6.8; 4% SDS; 10% glycerol; 0.006% bromophenol blue; 2% β-mercaptoethanol; 50 mM sodium fluoride; and 5 mM sodium orthovanadate). The protein concentration was measured, and equal amounts of protein samples were subjected to 6-15% SDS-PAGE. The separated proteins were transferred to PVDF membranes (Millipore, Bedford, Mass.), which were then incubated with primary antibodies diluted in 2.5% BSA in TBST (1:500-1:1000) overnight at 4° C. The membranes were then washed three times with TBST and incubated with the corresponding secondary antibodies. Protein bands were detected with an enhanced chemiluminescence detection kit (Intron, Daejeon, Korea) and an LAS-4000 Imager (Fuji Film Corp., Tokyo, Japan).
The phosphorylation of VEGFR2 (Tyr1175) affects the activation of PI3K signaling, which leads to an increase in vascular permeability. In the VEGF signaling pathway, SRC kinases are downstream of VEGFR2 and regulate vascular permeability and angiogenesis. The activation of FAK is also an important contributor markedly involved in endothelial cell migration, proliferation and adherends junction integrity.

[5] = tested on: HUVECs; experiment: Scratch wound migration assay; type: cell-based, human; conditions: 24 hours, concentration-dependent, FIG. 1
Procedure: The scratch wound migration assay was performed as follows.
HUVECs were allowed to grow at 90% confluence in 12-well plates pre-coated with 0.2% gelatin and were then incubated for 24 hours. After the cells were attached, they were wounded by scratching with a 0.2 mL pipette tip. The plates were then washed with serum-free medium. Fresh medium was replaced with 2% FBS/EBM-2 medium containing various concentrations of the test compound. The cells were incubated for 24 hours, and images were recorded using an inverted phase-contrast light microscope (Olympus Optical Co. Ltd., Tokyo, Japan).

[6] = Metabolic stability; type: in vitro ADME, human
Procedure: The test compound (1 μM) was incubated with human liver microsomes (HLM, 0.5 mg protein/ml) for 5 minutes at 37° C. in 100 mM potassium phosphate buffer (pH 7.4). The reaction was initiated by adding NADPH solution and incubated for 30 minutes. To terminate the reaction, acetonitrile (containing chlopropamide as internal standard) was added and centrifuged at 14,000 rpm for 5 minutes at 4° C. Then, the supernatant was analyzed using a LC-MS/MS (Kinetex C18 column, Phenomenex, USA).

[7] = tested on: Transgenic zebrafish (flk:EGFP) embryos; experiment: Animal model angiogenesis inhibition assay (diabetic retinopathy); type: in vivo; conditions: zebrafish larvae
Procedure: Transgenic zebrafish (flk:EGFP) embryos were provided by the Korea Zebrafish Oraganogenesis Muatant Bank (ZOMB, Daegu, Korea). The zebrafish embryos (3 dpf) were placed in a 12-well plate with 130 mM glucose embryonic H2O and various concentrations of the test compound. At 6 dpf, zebrafish larvae were fixed by 4% paraformaldehyde and stored overnight at 4° C. Next, the larvae were washed with distilled H2O, incubated with 10× trypsin (2.5%) for 90 minutes at 37° C. under a 5% CO2 atmosphere, and washed with distilled H2O. Then, the isolated lenses were isolated from the zebrafish larvae. Optic disc (OD) branches were visualized and photographed using a fluorescence microscope (Axiovert 200M, Carl Zeiss, Del.). The diameters of the larvae vessels were measured by ImageJ software.

[8] = tested on: HUVECs; experiment: HUVEC cell growth assay (MTT); type: cell-based, human; conditions: Homo sapiens, HUVEC; MTT, 24 hours, in the presence of VEGF (50 ng/mL)
Procedure: Human umbilical vascular endothelial cells (HUVECs) were obtained from the ATCC (Rockville, Md.) and cultured in EGM-2 (Lonza, Walkersville, Md.) supplemented with 10% FBS at 37° C. under a 5% CO2 atmosphere.
Cell growth was assessed by MTT assay. HUVECs (8×10^3 cells/well) were seeded onto a 96-well plate with EGM-2 medium supplemented with 10% FBS for 24 hours. The next day, the culture medium was removed, and the cells were then incubated with serum-free medium for 12 hours. Following serum starvation, the cells were cultured in fresh 2% FBS/EBM-2 medium containing various concentrations of the test compound for 24 hours in the presence of VEGF (50 ng/mL). After the incubation, an MTT solution was added, and the plate was incubated for additional 4 hours. The formazan product was dissolved in DMSO, and the absorbance was detected at 570 nm using a VersaMax ELISA microplate reader (Molecular Devices, Sunnyvale, Calif.).
(§3) The same experiment was carried out for sunitinib as a positive control.

[9] = tested on: HUVECs; experiment: In vitro tube formation assay; type: cell-based, human
Procedure: Matrigel (70 μl/well) was coated onto a 96-well plate and polymerized for 30 minutes at 37° C. under a 5% CO2 atmosphere. HUVECs (1.5×10^4 cells/well) and various concentrations of the compound were seeded onto each well of the Matrigel-coated 96-well plate. The cells were then incubated for 8 hours at 37° C. under a 5% CO2 atmosphere. The formation of endothelial cell tubular structures was visualized under an inverted microscope and photographed (Olympus Optical Co. Ltd., Tokyo, Japan). The inhibition rate of tube formation was determined using the following equation. tube formation inhibition rate (%)=[1−(average tube numbersample−average tube numberVEGF(−))/(average tube numberVEGF(+)−average tube numberVEGF(−))]×100 [Equation 1]
The IC50 value was calculated using nonlinear regression analysis using TableCurve 2D v5.01 software (Systat Software Inc., Richmond, Calif., USA).
as §3
The endothelial cell tubular structure formation assay was performed in the same manner as in the Experimental Example 1.

[10] = Aqueous solubility (pH-metric CheqSol); type: physicochemical; conditions: 0.15 M KCl, 25° C.
Procedure: The aqueous solubility was measured by the pH-metric CheqSol technique (Sirius Analytical Instruments Ltd.). Experiments was performed in 0.15 M KCl solution under a nitrogen atmosphere, at 25° C., using standardized 0.5 M HCl and 0.5 M KOH solutions.

[11] = Plasma stability; type: in vitro ADME, human
Procedure: For measuring plasma stability, the test compound (10 μM) was incubated with human plasma at 37° C. After 30 minutes, the reaction was quenched by adding acetonitrile (containing chlopropamide as internal standard). The samples were vortexed for 5 minutes and centrifuged at 14,000 rpm for 5 minutes at 4° C. Then, the supernatant was analyzed using a LC-MS/MS (Kinetex C18 column, Phenomenex, USA).

Papp A→B at 10 μM [1]: 11 ×10⁻⁶ cm/s
MDCK cell permeability [2]: high
pKa [3]: 9.24
Metabolic Stability ([6]; 1 μM, human liver microsomes 0.5 mg protein/ml, NADPH, 30 minutes): 31%
microsomal stability ([6]; in words, human liver microsomes): good
Aqueous Solubility [10]: 24 µM
plasma stability ([11]; 10 μM, human plasma, 37° C., remaining after 30 minutes): 95%
plasma stability ([11]; in words): high
SMILES: CCc1ccc2nc(C(c3ccc(OC)c(OC)c3)n3cc(CCN4CCCCC4)nn3)sc2c1 (stereo not drawn) [Compound I-7, 2-((3,4-dimethoxyphenyl)(4-(2-(piperidin-1-yl)ethyl)-1H-1,2,3-triazol-1-yl)methyl)-6-ethylbenzo[d]thiazole]
activation of SRC (p-SRC)/FAK (p-FAK) ([4]; VEGF-stimulated HUVECs): inhibited
levels of VEGFR2 (p-VEGFR2) activated by VEGF ([4]; VEGF-stimulated HUVECs): suppressed
activation of PI3K (p-PI3K), AKT (p-AKT) and eNOS (p-eNOS) ([4]; pretreatment 30 minutes, VEGF (50 ng/mL) 20 minutes): significantly suppressed
enhancement of endothelial cell migration by VEGF [5]: inhibited
increase in hyaloid vessel diameters induced by HG ([7]; 130 mM glucose, 3 to 6 dpf, concentration-dependent, FIG. 3): suppressed
hyaloid vessel diameters in the optic disc area ([7]; high glucose, 2.5 μM): markedly reduced
IC50 [8]: 47.5 µM
enhancement of tube formation capacity by VEGF ([9]; HUVECs, concentration-dependent, FIG. 1): inhibited
IC50 ([9]; Homo sapiens, HUVEC, HUVECs on Matrigel, 8 hours, VEGF-induced tube formation): 0.631 µM
Selectivity Index (SI) ([9]; ratio of the IC50 for HUVEC cell growth to the IC50 for tube formation): 75.3
